Assay [1] in a line: Upregulation of Bax protein expression in human EC109 cells at 5 to 10 uM after 24 hrs by Western blot analysis. It counts as functional, cell-based. To be noted: ECa-109. On the technique in general: A western blot detects proteins with antibodies after separation by electrophoresis.
Assay [2] concerns ECa-109 cell line. The assay can be described thus: Induction of apoptosis in human EC109 cells assessed as nuclear condensation at 1.25 to 20 uM after 24 hrs by Hoechst 33258 staining-based fluorescence microscopic analysis. It counts as functional, cell-based.
Assay [3] can be described thus: Cell cycle arrest in human EC109 cells assessed as accumulation at G2/M phase at 10 uM after 24 hrs by propidium iodide staining-based flow cytometric analysis (reference value: 6.31%). It counts as functional. To be noted: ECa-109. (In general: Flow cytometry measures light scatter and fluorescence of single cells or particles in a stream.)
The nature of assay [4]: Cell cycle arrest in human EC109 cells assessed as accumulation at S phase at 10 uM after 12 hrs by propidium iodide staining-based flow cytometric analysis (reference value: 33.29%). To be noted: ECa-109. It counts as functional.
Assay [5] relates to ECa-109 cell line. The assay can be described thus: Induction of apoptosis in human EC109 cells assessed as increase in early apoptotic cells at 2.5 to 40 uM by annexin V-FITC/propidium iodide staining-based flow cytometric analysis. Conditions: TDE = time-dependent effect. In kind it is functional, cell-based.
For assay [6], the system named is ECa-109 cell line. The assay can be described thus: Induction of apoptosis in human EC109 cells assessed as increase in early apoptotic cells after 12 to 24 hrs by annexin V-FITC/propidium iodide staining-based flow cytometric analysis. It counts as functional, cell-based.
Assay [7] relates to ECa-109 cell line. In words: Induction of apoptosis in human EC109 cells assessed as damaged cells at 40 uM after 24 hrs by annexin V-FITC/propidium iodide staining-based flow cytometric analysis (reference value: 0.1%). It counts as functional.
For assay [8], the system named is ECa-109 cell line. In words: Induction of apoptosis in human EC109 cells assessed as early apoptotic cells at 20 uM after 24 hrs by annexin V-FITC/propidium iodide staining-based flow cytometric analysis (reference value: 3.8%). It counts as functional.
Assay [9] deals with ECa-109 cell line. In words: Induction of apoptosis in human EC109 cells assessed as early apoptotic cells at 2.5 uM after 24 hrs by annexin V-FITC/propidium iodide staining-based flow cytometric analysis (reference value: 3.8%). It counts as functional.
Assay [10] deals with ECa-109 cell line. The assay can be described thus: Induction of apoptosis in human EC109 cells assessed as late apoptotic cells at 20 uM after 12 hrs by annexin V-FITC/propidium iodide staining-based flow cytometric analysis (reference value: 1.4%). It counts as functional.
In assay [11] the test system is ECa-109 cell line. In words: Induction of apoptosis in human EC109 cells assessed as live cells at 2.5 uM after 12 hrs by annexin V-FITC/propidium iodide staining-based flow cytometric analysis (reference value: 92.1%). In kind it is functional.
For a further assay, the system named is PC-3. The assay can be described thus: Cytotoxicity against human PC3 cells assessed as growth inhibition after 72 hrs by MTT assay. It counts as functional, cell-based. To be noted: PC-3, 72 h.

Calls of active or inactive are those of the source. The calls are words filed in the database; no cut-off is given here.

By IC50 is commonly meant the concentration that inhibits the measured activity by half. On to `C[C@]12CC[C@H](O)CC1=CC[C@@H]1[C@@H]2CC[C@]2(C)c3nc4ncnn4c(-c4cccc(-c5c6c(nc7ncnn57)[C@@]5(C)CC[C@H]7[C@@H](CC=C8C[C@@H](O)CC[C@@]87C)[C@@H]5C6)c4)c3C[C@@H]12`, for which the outcome (in assay [1]; in the assay on ECa-109 cell line [2]) was Active. For the same compound, the Activity in assay [3] was 25.1%; in [4] it was 21.6%; in the assay with ECa-109 cell line [5], “tde”; with ECa-109 cell line [6], “Dose-dependent effect”; with ECa-109 cell line [7], 1.3%; in the assay on ECa-109 cell line [8], 31.5%. Further, the Activity in the assay with ECa-109 cell line [9] was 25%; in the assay on ECa-109 cell line [10] it was 51.1%; with ECa-109 cell line [11] it was 58.3%. Besides, in the assay on PC-3, the IC50 was 3.18 µM.
